# Data as given in patent publication US8895504B2, “Amylin derivatives” (priority 2008, dated 2014).
# pEC50: −log10 of the molar value. *1 amine or outer side, *2 acyl side, *3 side chain or, on linkers, in order; H or OH if unused. Where a SMILES comes first, the peptide text is derived from it. Bridges are numbered along the chain shown (N, C = ends). The star is where a group is joined. C20 diacid = O=C(O)CCCCCCCCCCCCCCCCCCC(=O)*; C18 diacid = O=C(O)CCCCCCCCCCCCCCCCC(=O)*; γGlu = O=C(O)[C@H](CCC(=O)[*:2])N[*:1]; AEEA = NCCOCCOCC(=O)O; GABA = NCCCC(=O)O
# Molecular target: T1, Amylin 3(a) receptor (human calcitonin receptor (CTa) and RAMP-3) (Homo sapiens, UniProt O60896+P30988)
# T1 construct: expressed in transfected cells; host or cells: BHK570 cells, stably transfected with a CRE-luciferase reporter
# Experiment: Luciferase assay (III), BHK Amylin 3(a)//CRE-luc cells
# Type: cell-based
# Settings: BHK cells with Amylin 3(a) receptor and CRE luciferase reporter, 4 hours incubation; read-out: Potency Luciferase
# Method in brief: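 BHK570 cells stably expressing CTa, RAMP-3 and a CRE-luciferase reporter, seeded at about 20,000 cells/well and grown overnight. Cells were exposed to standard or sample for 4 h at 37° C in phenol red-free DMEM with 10% FBS and 10 mM Hepes, pH 7,4. Luminescence was read after 30 min LucLite at room temperature.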
# T1 sequence (O60896 24-148): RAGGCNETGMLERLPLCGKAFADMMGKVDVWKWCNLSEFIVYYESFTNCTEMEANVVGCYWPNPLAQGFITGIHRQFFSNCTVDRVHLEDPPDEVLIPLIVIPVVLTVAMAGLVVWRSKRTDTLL
# T1 sequence (P30988 25-474): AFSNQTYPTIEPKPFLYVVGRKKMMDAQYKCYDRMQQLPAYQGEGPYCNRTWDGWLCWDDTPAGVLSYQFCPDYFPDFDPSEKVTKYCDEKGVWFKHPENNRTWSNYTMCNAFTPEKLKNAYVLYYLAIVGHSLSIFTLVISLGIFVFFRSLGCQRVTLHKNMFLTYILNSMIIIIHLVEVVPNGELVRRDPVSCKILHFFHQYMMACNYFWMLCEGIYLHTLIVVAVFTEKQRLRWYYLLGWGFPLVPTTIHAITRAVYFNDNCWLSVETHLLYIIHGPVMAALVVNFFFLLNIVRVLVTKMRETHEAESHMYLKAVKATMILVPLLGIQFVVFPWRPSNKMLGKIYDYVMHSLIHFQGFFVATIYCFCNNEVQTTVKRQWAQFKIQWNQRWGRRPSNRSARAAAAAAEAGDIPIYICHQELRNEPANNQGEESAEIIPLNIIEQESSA
row,SMILES,pEC50
1,"CC[C@H](C)[C@H](NC(=O)[C@@H]1CCCN1C(=O)CNC(=O)[C@H](Cc1ccccc1)NC(=O)[C@H](CC(N)=O)NC(=O)[C@H](CC(N)=O)NC(=O)[C@H](CO)NC(=O)[C@H](CO)NC(=O)[C@H](Cc1c[nH]cn1)NC(=O)[C@H](Cc1c[nH]cn1)NC(=O)[C@H](CC(C)C)NC(=O)[C@H](Cc1ccccc1)NC(=O)[C@H](CC(N)=O)NC(=O)[C@H](C)NC(=O)[C@H](CC(C)C)NC(=O)[C@H](CCCNC(=N)N)NC(=O)[C@H](CCC(N)=O)NC(=O)[C@@H](NC(=O)[C@H](C)NC(=O)[C@@H]1CSSC[C@H](NC(=O)[C@H](CCCCN)NC(=O)[C@H](CCCNC(=N)N)NC(=O)CC[C@H](NC(=O)CCCCCCCCCCCCCCCCCCC(=O)O)C(=O)O)C(=O)N[C@@H](CC(N)=O)C(=O)N[C@@H]([C@@H](C)O)C(=O)N[C@@H](C)C(=O)N[C@@H]([C@@H](C)O)C(=O)N1)[C@@H](C)O)C(=O)N[C@@H](CC(C)C)C(=O)N1CCC[C@H]1C(=O)N1CCC[C@H]1C(=O)N[C@H](C(=O)N[C@@H](CC(N)=O)C(=O)N[C@H](C(=O)NCC(=O)N[C@@H](CO)C(=O)N[C@@H](CC(N)=O)C(=O)N[C@H](C(=O)N[C@@H](Cc1ccc(O)cc1)C(N)=O)[C@@H](C)O)C(C)C)[C@@H](C)O [Example 17, N-alpha-[(S)-4-Carboxy-4-(19-carboxynonadecanoylamino)butyryl]-Arg-[His17]-pramlintide] ({C20 diacid-γGlu}-RKCNTATCATQRLANFLHHSSNNFGPILPPTNVGSNTY-NH2; disulfide 3-8)",10.10
2,"CC[C@H](C)[C@H](NC(=O)[C@@H]1CCCN1C(=O)CNC(=O)[C@H](Cc1ccccc1)NC(=O)[C@H](CC(N)=O)NC(=O)[C@H](CC(N)=O)NC(=O)[C@H](CO)NC(=O)[C@H](CO)NC(=O)[C@H](Cc1c[nH]cn1)NC(=O)[C@H](Cc1c[nH]cn1)NC(=O)[C@H](CC(C)C)NC(=O)[C@H](Cc1ccccc1)NC(=O)[C@H](CC(N)=O)NC(=O)[C@H](C)NC(=O)[C@H](CC(C)C)NC(=O)[C@H](CCCNC(=N)N)NC(=O)[C@H](CCC(N)=O)NC(=O)[C@@H](NC(=O)[C@H](C)NC(=O)[C@@H]1CSSC[C@H](NC(=O)CCCNC(=O)CCCCCCCCCCCCCCCCCCC(=O)O)C(=O)N[C@@H](CC(N)=O)C(=O)N[C@@H]([C@@H](C)O)C(=O)N[C@@H](C)C(=O)N[C@@H]([C@@H](C)O)C(=O)N1)[C@@H](C)O)C(=O)N[C@@H](CC(C)C)C(=O)N1CCC[C@H]1C(=O)N1CCC[C@H]1C(=O)N[C@H](C(=O)N[C@@H](CC(N)=O)C(=O)N[C@H](C(=O)NCC(=O)N[C@@H](CO)C(=O)N[C@@H](CC(N)=O)C(=O)N[C@H](C(=O)N[C@@H](Cc1ccc(O)cc1)C(N)=O)[C@@H](C)O)C(C)C)[C@@H](C)O [Example 30, N-alpha-[4-(19-Carboxynonadecanoylamino)butyryl]-[His17]-pramlintide (2-37)] ({C20 diacid-GABA}-CNTATCATQRLANFLHHSSNNFGPILPPTNVGSNTY-NH2; disulfide 1-6)",10.22
3,"CC[C@H](C)[C@H](NC(=O)[C@@H]1CCCN1C(=O)CNC(=O)[C@H](Cc1ccccc1)NC(=O)[C@H](CC(N)=O)NC(=O)[C@H](CC(N)=O)NC(=O)[C@H](CO)NC(=O)[C@H](CO)NC(=O)[C@H](Cc1c[nH]cn1)NC(=O)[C@H](CCCNC(=N)N)NC(=O)[C@H](CC(C)C)NC(=O)[C@H](Cc1ccccc1)NC(=O)[C@H](CC(N)=O)NC(=O)[C@H](C)NC(=O)[C@H](CC(C)C)NC(=O)[C@H](CCCNC(=N)N)NC(=O)[C@H](CCC(N)=O)NC(=O)[C@@H](NC(=O)[C@H](C)NC(=O)[C@@H]1CSSC[C@H](NC(=O)[C@H](Cc2c[nH]cn2)NC(=O)[C@H](Cc2c[nH]cn2)NC(=O)COCCOCCNC(=O)CC[C@H](NC(=O)CCCCCCCCCCCCCCCCCCC(=O)O)C(=O)O)C(=O)N[C@@H](CC(N)=O)C(=O)N[C@@H]([C@@H](C)O)C(=O)N[C@@H](C)C(=O)N[C@@H]([C@@H](C)O)C(=O)N1)[C@@H](C)O)C(=O)N[C@@H](CC(C)C)C(=O)N1CCC[C@H]1C(=O)N1CCC[C@H]1C(=O)N[C@H](C(=O)N[C@@H](CC(N)=O)C(=O)N[C@H](C(=O)NCC(=O)N[C@@H](CO)C(=O)N[C@@H](CC(N)=O)C(=O)N[C@H](C(=O)N[C@@H](Cc1ccc(O)cc1)C(N)=O)[C@@H](C)O)C(C)C)[C@@H](C)O [Example 34, N-alpha-[2-(2-{2-[4-(S)-Carboxy-4-(19-carboxynonadecanoylamino)butyrylamino]ethoxy}ethoxy)acetyl]-His-[His1,Arg17]-pramlintide] ({C20 diacid-γGlu-AEEA}-HHCNTATCATQRLANFLRHSSNNFGPILPPTNVGSNTY-NH2; disulfide 3-8)",9.70
4,"CC[C@H](C)[C@H](NC(=O)[C@@H]1CCCN1C(=O)CNC(=O)[C@H](Cc1ccccc1)NC(=O)[C@H](CC(N)=O)NC(=O)[C@H](CC(N)=O)NC(=O)[C@H](CO)NC(=O)[C@H](CO)NC(=O)[C@H](Cc1c[nH]cn1)NC(=O)[C@H](Cc1c[nH]cn1)NC(=O)[C@H](CC(C)C)NC(=O)[C@H](Cc1ccccc1)NC(=O)[C@H](CC(N)=O)NC(=O)[C@H](C)NC(=O)[C@H](CC(C)C)NC(=O)[C@H](CCCNC(=N)N)NC(=O)[C@H](CCC(N)=O)NC(=O)[C@@H](NC(=O)[C@H](C)NC(=O)[C@@H]1CSSC[C@H](NC(=O)[C@H](Cc2c[nH]cn2)NC(=O)[C@H](Cc2c[nH]cn2)NC(=O)[C@H](Cc2c[nH]cn2)NC(=O)CC[C@H](NC(=O)CCCCCCCCCCCCCCCCC(=O)O)C(=O)O)C(=O)N[C@@H](CC(N)=O)C(=O)N[C@@H]([C@@H](C)O)C(=O)N[C@@H](C)C(=O)N[C@@H]([C@@H](C)O)C(=O)N1)[C@@H](C)O)C(=O)N[C@@H](CC(C)C)C(=O)N1CCC[C@H]1C(=O)N1CCC[C@H]1C(=O)N[C@H](C(=O)N[C@@H](CC(N)=O)C(=O)N[C@H](C(=O)NCC(=O)N[C@@H](CO)C(=O)N[C@@H](CC(N)=O)C(=O)N[C@H](C(=O)N[C@@H](Cc1ccc(O)cc1)C(N)=O)[C@@H](C)O)C(C)C)[C@@H](C)O [Example 60, N-alpha-[(S)-4-Carboxy-4-(17-carboxyheptadecanoylamino)butyryl]-His-His-[His1,His17]-pramlintide] ({C18 diacid-γGlu}-HHHCNTATCATQRLANFLHHSSNNFGPILPPTNVGSNTY-NH2; disulfide 4-9)",10.30
5,"CC[C@H](C)[C@H](NC(=O)[C@@H]1CCCN1C(=O)CNC(=O)[C@H](Cc1ccccc1)NC(=O)[C@H](CC(N)=O)NC(=O)[C@H](CC(N)=O)NC(=O)[C@H](CO)NC(=O)[C@H](CO)NC(=O)[C@H](Cc1c[nH]cn1)NC(=O)[C@@H]1CCCN1C(=O)[C@H](CC(C)C)NC(=O)[C@H](Cc1ccccc1)NC(=O)[C@H](CC(N)=O)NC(=O)[C@H](C)NC(=O)[C@H](CC(C)C)NC(=O)[C@H](CCCNC(=N)N)NC(=O)[C@H](CCC(N)=O)NC(=O)[C@@H](NC(=O)[C@H](C)NC(=O)[C@@H]1CSSC[C@H](NC(=O)CC[C@H](NC(=O)CCCCCCCCCCCCCCCCCCC(=O)O)C(=O)O)C(=O)N[C@@H](CC(N)=O)C(=O)N[C@@H]([C@@H](C)O)C(=O)N[C@@H](C)C(=O)N[C@@H]([C@@H](C)O)C(=O)N1)[C@@H](C)O)C(=O)N[C@@H](CC(C)C)C(=O)N1CCC[C@H]1C(=O)N1CCC[C@H]1C(=O)N[C@H](C(=O)N[C@@H](CC(N)=O)C(=O)N[C@H](C(=O)NCC(=O)N[C@@H](CO)C(=O)N[C@@H](CC(N)=O)C(=O)N[C@H](C(=O)N[C@@H](Cc1ccc(O)cc1)C(N)=O)[C@@H](C)O)C(C)C)[C@@H](C)O [Example 15, N-alpha-[(S)-4-Carboxy-4-(19-carboxynonadecanoylamino)butyryl]-[Pro17]-pramlintide (2-37)] ({C20 diacid-γGlu}-CNTATCATQRLANFLPHSSNNFGPILPPTNVGSNTY-NH2; disulfide 1-6)",8.10
